For 4 compounds, % of control and % of inhibition results are on record in ChEMBL document CHEMBL5465560, “Selectivity Literature for EUbOPEN Chemogenomic Library” (2024).

The target in assay [1] is TGF-beta receptor type-2 (Homo sapiens) (UniProt P37173). Nature of the assay: Selectivity interaction (KinomeScan (DiscoverX)) EUB0000607a TGFBR2. Conditions: at 10 µM.
Assay [2] has as its target T1, Tyrosine-protein kinase ZAP-70 (Homo sapiens) (UniProt P43403).
T1 sequence (whole entry): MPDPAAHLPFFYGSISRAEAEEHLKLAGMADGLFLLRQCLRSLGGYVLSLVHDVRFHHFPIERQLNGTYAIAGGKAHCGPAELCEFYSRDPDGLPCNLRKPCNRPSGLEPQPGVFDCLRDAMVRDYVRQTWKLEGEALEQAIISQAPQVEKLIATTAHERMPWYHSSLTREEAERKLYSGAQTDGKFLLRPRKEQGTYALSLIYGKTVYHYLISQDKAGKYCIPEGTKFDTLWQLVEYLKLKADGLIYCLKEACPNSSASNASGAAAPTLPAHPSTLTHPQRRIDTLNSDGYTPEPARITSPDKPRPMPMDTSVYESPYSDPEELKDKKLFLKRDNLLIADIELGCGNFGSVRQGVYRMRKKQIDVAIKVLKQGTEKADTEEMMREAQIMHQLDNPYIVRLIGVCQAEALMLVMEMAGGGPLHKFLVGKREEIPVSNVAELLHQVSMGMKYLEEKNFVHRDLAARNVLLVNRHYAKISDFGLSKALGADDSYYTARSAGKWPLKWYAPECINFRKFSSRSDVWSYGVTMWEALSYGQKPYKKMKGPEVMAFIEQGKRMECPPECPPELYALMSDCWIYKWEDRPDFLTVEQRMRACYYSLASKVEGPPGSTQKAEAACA
Nature of the assay: Selectivity interaction (SelectScreen profiling (Invitrogen)) EUB0000607a ZAP70. The following applies: at 2 µM.

In assay [3] the target is Cyclin-dependent kinase 7 (Homo sapiens, UniProt P50613). Conditions: at 10 µM.
Cyclin-dependent kinase 7, sequence (P50613 whole entry): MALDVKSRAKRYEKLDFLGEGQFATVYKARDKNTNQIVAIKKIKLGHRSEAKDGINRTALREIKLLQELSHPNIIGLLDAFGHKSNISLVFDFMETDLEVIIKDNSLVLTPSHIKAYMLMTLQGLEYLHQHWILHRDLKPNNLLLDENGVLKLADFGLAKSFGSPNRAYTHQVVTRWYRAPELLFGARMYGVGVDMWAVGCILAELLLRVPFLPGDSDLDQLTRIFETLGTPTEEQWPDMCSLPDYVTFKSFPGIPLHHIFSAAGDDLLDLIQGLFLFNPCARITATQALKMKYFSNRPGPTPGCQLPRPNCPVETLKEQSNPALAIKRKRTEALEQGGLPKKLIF
The next assay has as its target Focal adhesion kinase 1 (Homo sapiens, UniProt Q05397). Conditions: at 10 µM.
For assay [4], the target named is T2, SNF-related serine/threonine-protein kinase (Homo sapiens) (UniProt Q9NRH2).
T2 sequence (whole entry): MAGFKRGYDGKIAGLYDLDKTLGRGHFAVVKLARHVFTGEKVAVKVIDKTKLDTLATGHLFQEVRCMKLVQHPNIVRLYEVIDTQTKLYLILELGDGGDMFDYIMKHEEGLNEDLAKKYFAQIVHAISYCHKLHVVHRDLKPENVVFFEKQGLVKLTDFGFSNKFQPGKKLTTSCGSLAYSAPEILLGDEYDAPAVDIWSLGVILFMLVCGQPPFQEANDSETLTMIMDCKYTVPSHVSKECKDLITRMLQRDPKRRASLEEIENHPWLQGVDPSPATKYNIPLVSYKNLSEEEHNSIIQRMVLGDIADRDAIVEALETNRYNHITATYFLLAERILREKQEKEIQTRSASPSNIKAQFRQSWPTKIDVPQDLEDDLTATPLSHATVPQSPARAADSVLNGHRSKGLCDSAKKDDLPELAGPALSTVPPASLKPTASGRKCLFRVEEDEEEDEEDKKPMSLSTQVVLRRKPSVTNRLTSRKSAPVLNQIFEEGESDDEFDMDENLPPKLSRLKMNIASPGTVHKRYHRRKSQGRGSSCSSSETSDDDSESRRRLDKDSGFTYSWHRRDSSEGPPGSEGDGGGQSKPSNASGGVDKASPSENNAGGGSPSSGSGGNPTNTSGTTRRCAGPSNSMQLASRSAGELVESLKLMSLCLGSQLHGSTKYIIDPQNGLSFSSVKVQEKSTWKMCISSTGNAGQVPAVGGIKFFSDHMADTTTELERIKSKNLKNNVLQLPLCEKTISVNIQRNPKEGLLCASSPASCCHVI
Briefly: Selectivity interaction (KinomeScan (DiscoverX)) EUB0000655a SNRK. Conditions: at 10 µM.

Assay [5] addresses T3, Ephrin type-B receptor 6 (Homo sapiens) (UniProt O15197).
T3 sequence (whole entry): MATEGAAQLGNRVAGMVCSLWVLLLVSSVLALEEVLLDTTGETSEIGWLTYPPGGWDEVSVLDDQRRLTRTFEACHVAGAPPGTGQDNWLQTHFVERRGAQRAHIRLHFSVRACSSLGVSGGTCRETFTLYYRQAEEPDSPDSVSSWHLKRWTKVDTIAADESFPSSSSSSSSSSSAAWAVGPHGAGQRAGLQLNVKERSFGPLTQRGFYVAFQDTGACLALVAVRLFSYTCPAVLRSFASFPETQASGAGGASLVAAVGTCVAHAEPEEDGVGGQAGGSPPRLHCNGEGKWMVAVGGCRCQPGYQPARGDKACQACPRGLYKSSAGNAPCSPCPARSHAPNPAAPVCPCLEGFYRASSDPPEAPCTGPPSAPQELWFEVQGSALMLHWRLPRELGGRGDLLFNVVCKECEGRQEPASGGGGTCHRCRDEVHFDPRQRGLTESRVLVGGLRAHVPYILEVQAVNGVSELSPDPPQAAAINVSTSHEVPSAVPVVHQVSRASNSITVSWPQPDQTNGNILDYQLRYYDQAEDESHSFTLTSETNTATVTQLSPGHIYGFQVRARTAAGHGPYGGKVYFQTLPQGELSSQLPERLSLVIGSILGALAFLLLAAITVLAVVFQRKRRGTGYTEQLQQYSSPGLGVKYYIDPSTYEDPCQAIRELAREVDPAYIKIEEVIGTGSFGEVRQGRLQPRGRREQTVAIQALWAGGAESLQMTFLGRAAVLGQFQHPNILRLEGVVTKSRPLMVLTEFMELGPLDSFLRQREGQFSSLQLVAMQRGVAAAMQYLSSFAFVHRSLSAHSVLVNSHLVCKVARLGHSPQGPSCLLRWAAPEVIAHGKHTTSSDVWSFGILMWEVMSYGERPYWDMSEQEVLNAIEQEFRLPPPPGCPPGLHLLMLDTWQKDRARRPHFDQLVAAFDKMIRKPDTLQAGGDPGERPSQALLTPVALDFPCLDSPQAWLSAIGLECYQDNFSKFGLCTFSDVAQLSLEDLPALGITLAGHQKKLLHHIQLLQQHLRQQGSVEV
Nature of the assay: Selectivity interaction (KinomeScan (DiscoverX)) EUB0000655a EPHB6. Conditions: at 10 µM.

Assay [6] has as its target Serine/threonine-protein kinase/endoribonuclease IRE1 (Homo sapiens) (UniProt O75460). Nature of the assay: Selectivity interaction (KinomeScan (DiscoverX)) EUB0000595a ERN1. Conditions: at 10 µM.

Focal adhesion kinase 1, sequence (Q05397 2-1052 limits assumed): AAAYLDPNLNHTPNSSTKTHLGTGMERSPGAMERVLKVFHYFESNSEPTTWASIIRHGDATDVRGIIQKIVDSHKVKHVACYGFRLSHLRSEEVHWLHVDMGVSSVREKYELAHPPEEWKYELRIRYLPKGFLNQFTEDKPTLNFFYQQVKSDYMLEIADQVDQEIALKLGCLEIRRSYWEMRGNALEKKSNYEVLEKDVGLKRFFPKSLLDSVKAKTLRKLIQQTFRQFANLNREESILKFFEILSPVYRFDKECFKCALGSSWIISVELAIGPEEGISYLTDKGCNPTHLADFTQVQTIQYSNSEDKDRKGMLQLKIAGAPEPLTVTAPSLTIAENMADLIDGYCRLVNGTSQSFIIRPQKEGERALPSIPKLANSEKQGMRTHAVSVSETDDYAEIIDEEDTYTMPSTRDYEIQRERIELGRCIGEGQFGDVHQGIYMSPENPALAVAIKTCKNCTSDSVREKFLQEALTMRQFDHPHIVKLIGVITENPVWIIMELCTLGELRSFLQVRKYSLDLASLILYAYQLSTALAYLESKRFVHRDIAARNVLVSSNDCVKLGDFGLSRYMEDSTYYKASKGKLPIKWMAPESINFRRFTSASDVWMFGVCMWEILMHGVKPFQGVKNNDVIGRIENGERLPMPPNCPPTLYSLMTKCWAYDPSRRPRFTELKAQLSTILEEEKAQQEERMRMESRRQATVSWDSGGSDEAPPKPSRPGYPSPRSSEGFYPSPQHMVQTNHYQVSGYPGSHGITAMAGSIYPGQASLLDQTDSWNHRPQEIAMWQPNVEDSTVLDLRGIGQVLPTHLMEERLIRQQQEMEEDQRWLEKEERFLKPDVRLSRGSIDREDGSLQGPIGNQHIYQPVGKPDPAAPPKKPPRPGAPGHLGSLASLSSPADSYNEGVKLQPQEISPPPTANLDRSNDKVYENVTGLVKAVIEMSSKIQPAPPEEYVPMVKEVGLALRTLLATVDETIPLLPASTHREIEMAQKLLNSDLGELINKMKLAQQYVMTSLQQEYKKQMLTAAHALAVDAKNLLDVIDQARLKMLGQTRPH
TGF-beta receptor type-2 (Homo sapiens), sequence (P37173 whole entry): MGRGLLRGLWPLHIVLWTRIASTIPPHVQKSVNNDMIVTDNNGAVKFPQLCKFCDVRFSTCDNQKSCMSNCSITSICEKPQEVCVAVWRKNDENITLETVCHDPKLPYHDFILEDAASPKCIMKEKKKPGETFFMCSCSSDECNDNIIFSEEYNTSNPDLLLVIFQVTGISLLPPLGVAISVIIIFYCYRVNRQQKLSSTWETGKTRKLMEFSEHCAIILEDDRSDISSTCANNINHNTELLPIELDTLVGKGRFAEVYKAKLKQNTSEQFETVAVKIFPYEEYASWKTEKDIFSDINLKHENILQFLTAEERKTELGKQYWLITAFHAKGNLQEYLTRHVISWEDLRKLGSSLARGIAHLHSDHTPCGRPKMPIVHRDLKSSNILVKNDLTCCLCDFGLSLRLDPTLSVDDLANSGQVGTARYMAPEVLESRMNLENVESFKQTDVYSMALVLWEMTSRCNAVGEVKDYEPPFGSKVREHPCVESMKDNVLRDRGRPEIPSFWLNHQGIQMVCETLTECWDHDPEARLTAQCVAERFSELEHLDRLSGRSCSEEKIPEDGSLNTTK
Serine/threonine-protein kinase/endoribonuclease IRE1 (Homo sapiens), sequence (O75460 19-977 limits assumed): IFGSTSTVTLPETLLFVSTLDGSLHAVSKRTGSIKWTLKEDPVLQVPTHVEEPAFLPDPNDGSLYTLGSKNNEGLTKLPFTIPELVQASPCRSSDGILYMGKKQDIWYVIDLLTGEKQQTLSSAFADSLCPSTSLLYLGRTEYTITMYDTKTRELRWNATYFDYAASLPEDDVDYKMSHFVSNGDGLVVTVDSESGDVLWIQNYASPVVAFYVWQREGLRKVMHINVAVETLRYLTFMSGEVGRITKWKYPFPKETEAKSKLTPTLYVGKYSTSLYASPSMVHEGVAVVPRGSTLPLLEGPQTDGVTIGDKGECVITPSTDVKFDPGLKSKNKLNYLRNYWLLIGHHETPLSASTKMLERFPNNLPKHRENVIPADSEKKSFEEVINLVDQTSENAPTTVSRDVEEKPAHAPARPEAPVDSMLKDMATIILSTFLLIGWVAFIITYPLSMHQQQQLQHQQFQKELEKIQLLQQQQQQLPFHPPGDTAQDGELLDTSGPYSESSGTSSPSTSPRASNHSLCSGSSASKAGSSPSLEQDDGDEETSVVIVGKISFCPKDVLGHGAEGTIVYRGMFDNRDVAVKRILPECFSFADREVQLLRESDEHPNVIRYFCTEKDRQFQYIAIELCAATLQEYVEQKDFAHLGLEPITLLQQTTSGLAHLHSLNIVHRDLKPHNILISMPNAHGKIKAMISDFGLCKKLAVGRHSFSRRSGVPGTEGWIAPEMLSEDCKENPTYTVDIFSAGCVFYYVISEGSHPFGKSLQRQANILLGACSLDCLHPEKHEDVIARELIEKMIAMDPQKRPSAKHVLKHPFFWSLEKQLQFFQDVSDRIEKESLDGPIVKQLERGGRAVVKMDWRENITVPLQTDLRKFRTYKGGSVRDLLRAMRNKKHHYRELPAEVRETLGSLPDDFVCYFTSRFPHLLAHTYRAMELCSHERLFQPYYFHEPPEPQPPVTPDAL

For the compound `CNC(=O)Nc1ccc(-c2nc(N3CC4CCC(C3)O4)c3cnn(C4CCC5(CC4)OCCO5)c3n2)cc1`, the % of control in assay [1] amounted to 100%. This compound registered a % of inhibition in assay [2] of 7%. `Cc1cc([C@@H](C)Nc2ccccc2C(=O)O)c2nc(N3CCOCC3)cc(=O)n2c1` [AZD-6482]: the % of control in assay [3] came out at 97%; at Focal adhesion kinase 1, 88%. Regarding `CN(C)CCOc1ccc(-c2nc(-c3ccncc3)c(-c3ccc4c(c3)CC/C4=N\O)[nH]2)cc1`, the % of control in assay [4] stood at 89%; in assay [5], 34%. As to `COCC(=O)NC/C=C/c1ccc2ncnc(Nc3ccc(Oc4ccc(C)nc4)c(C)c3)c2c1` [CP-724714], in assay [6], the % of control was found to be 82%.
